In one test the target is 5-hydroxytryptamine receptor 1A (Rattus norvegicus) (UniProt P19327). As to the kind of experiment: Ki ratio measured as the Ki values of dopamine receptor to that of 5-hydroxytryptamine 1A receptor.
Chain of 5-hydroxytryptamine receptor 1A (Rattus norvegicus) (P19327 whole entry, looked up): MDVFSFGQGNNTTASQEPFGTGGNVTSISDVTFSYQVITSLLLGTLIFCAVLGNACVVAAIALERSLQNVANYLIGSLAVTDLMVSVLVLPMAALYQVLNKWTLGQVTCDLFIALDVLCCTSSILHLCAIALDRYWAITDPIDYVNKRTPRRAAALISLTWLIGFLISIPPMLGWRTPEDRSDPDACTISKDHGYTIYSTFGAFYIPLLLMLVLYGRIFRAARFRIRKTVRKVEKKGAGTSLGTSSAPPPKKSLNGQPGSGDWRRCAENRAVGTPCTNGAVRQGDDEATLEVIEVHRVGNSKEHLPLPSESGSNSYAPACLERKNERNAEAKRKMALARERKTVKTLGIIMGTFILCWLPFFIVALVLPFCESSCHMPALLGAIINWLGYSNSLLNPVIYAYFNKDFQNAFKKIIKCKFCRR
Regarding `Clc1cccc2c1CC2CCN1CCN(c2cccc3c2OCCO3)CC1` (stereo unspecified), the Ki ratio stood at 26.9.
Still for that read-out and setting: the value for `c1ccc2c(c1)CC(N1CCN(c3cccc4c3OCCCO4)CC1)C2` was 51.3; that for `COc1cc2c(cc1OC)C(CCN1CCN(c3cccc4c3OCCO4)CC1)CC2` (stereo unspecified) was 83.4.

The next test has the same target. Kind of test: Ki ratio measured as the Ki values of dopamine receptor to that of 5-hydroxytryptamine 1A receptor receptor.
Take `COc1ccccc1N1CCN(C[C@@H](C(=O)NC(C)(C)C)c2ccccc2)CC1`: the Ki ratio came to 12.
In the case of `c1ccc2c(c1)CC2CCN1CCN(c2cccc3c2OCCO3)CC1` (stereo unspecified), the Ki ratio turned out to be 79.4.
Same read-out and setting: as for `c1ccc2c(c1)CC(N1CCN(c3cccc4c3OCCO4)CC1)C2`, the figure is 195.

(Values after ChEMBL document CHEMBL1128459, “Characterization of potent and selective antagonists at postsynaptic 5-HT1A receptors in a series of N4-substituted arylpiperazines” (J Med Chem, 1995).)
